From article PMC6934184, “Selective DNA-PKcs inhibition extends the therapeutic index of localized radiotherapy and chemotherapy” (The Journal of Clinical Investigation, 2019) come the findings set out here.

In the assay the target is T1, CSK (Homo sapiens, UniProt P41240).
T1 construct: purchased Thermo Fisher Scientific (Life Technologies) SelectScreen
The experiment in a line: SelectScreen Z'LYTE. In kind it is biochemical. The procedure, abridged:
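Compound tested in SelectScreen activity assays, Z'LYTE for CSF1R, CDK1/cyclin B and MAP2K6 and Adapta for CAMK1. ATP for CAMK1 was listed as 10, and Km app was used for CSF1R. Results are expressed in percent.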

T1 sequence (P41240 whole entry): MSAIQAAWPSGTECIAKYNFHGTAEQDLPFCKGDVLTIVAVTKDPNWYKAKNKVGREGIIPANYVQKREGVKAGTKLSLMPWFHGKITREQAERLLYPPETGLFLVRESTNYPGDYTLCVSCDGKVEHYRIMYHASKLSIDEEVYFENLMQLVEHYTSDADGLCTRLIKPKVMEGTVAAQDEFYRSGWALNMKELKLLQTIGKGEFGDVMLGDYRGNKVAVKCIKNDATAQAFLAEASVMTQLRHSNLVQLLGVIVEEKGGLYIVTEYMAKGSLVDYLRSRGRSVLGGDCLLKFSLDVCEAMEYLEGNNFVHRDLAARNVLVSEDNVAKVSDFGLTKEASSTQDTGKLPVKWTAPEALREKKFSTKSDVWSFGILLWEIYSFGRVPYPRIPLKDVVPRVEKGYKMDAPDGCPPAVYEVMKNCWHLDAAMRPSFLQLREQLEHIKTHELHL

On to `CN(C(=O)CN1CCOCC1)c1ccc2sc3c(-c4cccc5c(=O)cc(N6CC7CCC(C6)O7)oc45)cccc3c2c1` [NU5455], for which the inhibition (usually the percentage by which the read-out fell short of the control) at 1 µM is 7.6%.
